“And” between values parts separate entries of the source, which are not always exact repeats. Equal values may be shown once.
How the values were obtained:
[1] = Plasma protein binding, dialysis equilibrium method, rat
CYP3A4M = CYP3A4M (Homo sapiens, UniProt P08684)
HIV-2 (ROD) = assay: Anti-HIV activity in MT-4 cells; format: cell-based; conditions: Human immunodeficiency virus 2, MT4, read-out: EC50 ROD
HIV-1 E138K = assay: Anti-HIV-1 activity against mutant strain E138K in MT-4 cells; format: cell-based; conditions: Human immunodeficiency virus 1, MT4, read-out: EC50 E138K
HIV-1 Y188L = assay: Anti-HIV-1 activity against mutant strain Y188L in MT-4 cells; format: cell-based; conditions: Human immunodeficiency virus 1, MT4, read-out: EC50 Y188L
[2] = Kinetic aqueous solubility; conditions: kinetic from dmso stock
WT HIV-1 RT = WT HIV-1 RT (Human immunodeficiency virus type 1 group M subtype B, UniProt P03366); assay: HIV-1 RT inhibition assay; format: biochemical
CYP2C19 = CYP2C19 (Homo sapiens, UniProt P33261); assay: Cytochrome P450 inhibition, CYP2C19; format: in vitro ADME
Sequence of CYP2C19 (P33261 whole entry): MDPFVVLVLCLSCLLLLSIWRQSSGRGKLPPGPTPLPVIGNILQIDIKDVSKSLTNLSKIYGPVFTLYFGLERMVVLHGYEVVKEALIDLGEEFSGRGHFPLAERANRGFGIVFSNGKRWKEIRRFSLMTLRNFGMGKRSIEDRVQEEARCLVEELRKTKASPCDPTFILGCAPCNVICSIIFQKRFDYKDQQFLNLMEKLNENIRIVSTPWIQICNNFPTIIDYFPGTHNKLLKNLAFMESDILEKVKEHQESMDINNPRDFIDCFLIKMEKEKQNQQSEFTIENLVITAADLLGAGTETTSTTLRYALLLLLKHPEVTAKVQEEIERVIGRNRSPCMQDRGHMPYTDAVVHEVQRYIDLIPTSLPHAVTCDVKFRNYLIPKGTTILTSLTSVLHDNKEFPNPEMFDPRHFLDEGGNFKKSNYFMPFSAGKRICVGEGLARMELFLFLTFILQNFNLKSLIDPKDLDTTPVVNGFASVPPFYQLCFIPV

[3] = Plasma protein binding, dialysis equilibrium method, human
[4] = test system: HIV-1 RES056 (K103N/Y181C); assay: Anti-HIV-1 activity against double mutant RES056 in MT-4 cells; format: cell-based; conditions: Human immunodeficiency virus 1, MT4, read-out: EC50 RES056
HIV-1 F227L + V106A = assay: Anti-HIV-1 activity against double mutant F227L + V106A in MT-4 cells; format: cell-based; conditions: Human immunodeficiency virus 1, MT4, read-out: EC50 F227L + V106A
HIV-1 K103N = assay: Anti-HIV-1 activity against mutant strain K103N in MT-4 cells; format: cell-based; conditions: Human immunodeficiency virus 1, MT4, read-out: EC50 K103N
CYP2D6 = CYP2D6 (Homo sapiens, UniProt P10635); assay: biochemical
Sequence of CYP2D6 (P10635 whole entry): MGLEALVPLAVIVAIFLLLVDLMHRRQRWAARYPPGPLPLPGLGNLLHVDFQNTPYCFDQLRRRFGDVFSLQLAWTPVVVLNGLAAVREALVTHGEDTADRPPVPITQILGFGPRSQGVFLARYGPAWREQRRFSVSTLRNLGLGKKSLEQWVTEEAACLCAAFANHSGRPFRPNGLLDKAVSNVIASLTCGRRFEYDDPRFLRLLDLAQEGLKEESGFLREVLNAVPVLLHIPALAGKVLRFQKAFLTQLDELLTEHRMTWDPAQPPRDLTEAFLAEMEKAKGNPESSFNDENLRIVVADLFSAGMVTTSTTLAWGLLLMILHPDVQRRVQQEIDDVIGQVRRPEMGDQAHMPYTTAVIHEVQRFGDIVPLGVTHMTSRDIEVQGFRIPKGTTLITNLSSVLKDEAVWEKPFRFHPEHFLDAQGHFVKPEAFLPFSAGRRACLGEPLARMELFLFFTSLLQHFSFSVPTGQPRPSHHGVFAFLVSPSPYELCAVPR

[5] = In vivo pharmacokinetics in SD rats; conditions: rat, plasma
CYP1A2 = molecular target: T1, CYP1A2 (Homo sapiens, UniProt P05177); assay: biochemical
T1 sequence (P05177 1-516): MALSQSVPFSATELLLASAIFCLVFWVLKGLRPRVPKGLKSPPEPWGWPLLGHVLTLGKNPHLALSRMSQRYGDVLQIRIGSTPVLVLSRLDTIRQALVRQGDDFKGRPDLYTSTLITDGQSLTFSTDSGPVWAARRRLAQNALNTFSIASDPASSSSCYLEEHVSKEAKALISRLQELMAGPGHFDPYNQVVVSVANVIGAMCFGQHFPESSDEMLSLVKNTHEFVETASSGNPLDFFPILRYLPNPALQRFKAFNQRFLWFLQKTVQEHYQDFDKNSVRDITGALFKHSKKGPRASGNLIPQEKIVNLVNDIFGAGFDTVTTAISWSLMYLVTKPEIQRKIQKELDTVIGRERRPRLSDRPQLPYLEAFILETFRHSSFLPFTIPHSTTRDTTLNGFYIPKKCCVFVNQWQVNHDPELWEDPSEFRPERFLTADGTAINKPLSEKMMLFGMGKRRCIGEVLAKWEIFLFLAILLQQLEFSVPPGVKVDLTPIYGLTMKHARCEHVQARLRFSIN

HIV-1 RT RNase H = HIV-1 RT RNase H (Human immunodeficiency virus type 1 group M subtype B, UniProt P03366); assay: HIV-1 RT RNase H inhibition; format: biochemical
HIV-1 L100I = assay: Anti-HIV-1 activity against mutant strain L100I in MT-4 cells; format: cell-based; conditions: Human immunodeficiency virus 1, MT4, read-out: EC50 L100I
CYP2C9 = CYP2C9 (Homo sapiens, UniProt P11712); assay: Cytochrome P450 inhibition, CYP2C9; format: in vitro ADME
Sequence of CYP2C9 (P11712 whole entry): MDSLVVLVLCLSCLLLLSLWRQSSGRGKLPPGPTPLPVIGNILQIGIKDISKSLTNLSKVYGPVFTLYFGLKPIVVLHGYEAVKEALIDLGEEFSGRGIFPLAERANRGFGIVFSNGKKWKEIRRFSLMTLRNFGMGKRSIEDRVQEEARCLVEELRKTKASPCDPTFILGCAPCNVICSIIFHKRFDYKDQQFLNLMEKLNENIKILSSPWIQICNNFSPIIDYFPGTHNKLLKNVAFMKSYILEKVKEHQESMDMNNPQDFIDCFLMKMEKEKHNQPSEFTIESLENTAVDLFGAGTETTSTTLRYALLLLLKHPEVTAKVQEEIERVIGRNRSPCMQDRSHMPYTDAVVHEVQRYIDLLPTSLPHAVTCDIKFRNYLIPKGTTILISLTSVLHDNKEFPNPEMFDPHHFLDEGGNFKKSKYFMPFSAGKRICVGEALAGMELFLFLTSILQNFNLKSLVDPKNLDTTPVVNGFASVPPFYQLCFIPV

[6] = Cytotoxicity in uninfected MT-4 cells; format: cell-based; conditions: human, uninfected MT-4 cells
HIV-1 Y181C = assay: Anti-HIV-1 activity against mutant strain Y181C in MT-4 cells; format: cell-based; conditions: Human immunodeficiency virus 1, MT4, read-out: EC50 Y181C

Sequence of CYP3A4M (P08684 whole entry): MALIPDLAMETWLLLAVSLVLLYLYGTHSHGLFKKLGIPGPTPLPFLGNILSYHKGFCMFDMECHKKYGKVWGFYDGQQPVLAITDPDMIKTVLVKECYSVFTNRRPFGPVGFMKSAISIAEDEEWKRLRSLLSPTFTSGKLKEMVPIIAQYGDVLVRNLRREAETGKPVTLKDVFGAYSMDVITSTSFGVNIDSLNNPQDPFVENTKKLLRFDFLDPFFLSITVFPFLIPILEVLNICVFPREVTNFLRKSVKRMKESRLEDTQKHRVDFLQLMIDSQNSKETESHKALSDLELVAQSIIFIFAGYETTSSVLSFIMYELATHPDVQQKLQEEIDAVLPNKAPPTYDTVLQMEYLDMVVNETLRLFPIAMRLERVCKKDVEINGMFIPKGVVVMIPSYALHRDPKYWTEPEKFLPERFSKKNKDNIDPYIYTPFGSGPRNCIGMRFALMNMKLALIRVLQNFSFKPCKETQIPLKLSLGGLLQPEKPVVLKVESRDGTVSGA

In the case of `Cc1cc(-c2ccc(C#N)cc2)cc(C)c1Oc1nc(NCCN2CCOCC2)nc(Nc2ccc(C#N)cc2)n1` [Compound 5j, 4ʹ-((4-((4-Cyanophenyl)amino)-6-((2-morpholinoethyl)amino)-1,3,5-triazin-2-yl)-oxy)-3ʹ,5ʹ-dimethyl-[1,1ʹ-biphenyl]-4-carbonitrile], the recovery at 2 μmol/L [1] is reported as 99.5%, the IC50 (CYP3A4M) is reported as > 50 µM and the EC50 (HIV-2 (ROD)) is reported as 0.05 ± 0.001 µM. For the same molecule, the EC50 (HIV-1 E138K) was 0.0064 ± 0.0001 µM, the EC50 (HIV-1 Y188L) was 0.017 ± 0.003 µM and the solubility kinetic ([2]; FaSSIF) was 41.6 µg/mL and 76.2 µM. For the same molecule, the solubility kinetic ([2]; aqueous solution at pH 2.0, pH 2, aqueous buffer) was 6.58 µg/mL and 12.1 µM, the solubility kinetic ([2]; aqueous solution at pH 7.0, pH 7, aqueous buffer) was < 0.853 µg/mL and < 1.56 µM and the solubility kinetic ([2]; aqueous solution at pH 7.4, pH 7.4, aqueous buffer) was < 0.853 µg/mL and < 1.56 µM. The IC50 (WT HIV-1 RT) was 0.176 µM, the IC50 (CYP2C19) was > 50 µM and the recovery at 2 μmol/L [3] was 84.9%. The EC50 [4] was 0.034 ± 0.004 µM, the EC50 (HIV-1 F227L + V106A) was 0.017 ± 0.004 µM and the EC50 (HIV-1 K103N) was 0.003 ± 0.001 µM. The IC50 (CYP2D6) was > 50 µM, the AUC(0-inf) ([5]; iv, 1 mg/kg) was 6660 ± 809 ng·h/mL and the AUC(0-t) ([5]; iv, 1 mg/kg) was 6650 ± 795 ng·h/mL. For the same molecule, the clearance ([5]; iv, 1 mg/kg) was 5.06 ± 0.658 mL/min/kg, the half-life ([5]; iv, 1 mg/kg) was 0.734 ± 0.174 h and the AUC(0-t) ([5]; po, 20 mg/kg) was 322 ± 176 ng·h/mL. It also gave a Cmax ([5]; po, 20 mg/kg) of 43.2 ± 39.8 ng/mL, a Tmax ([5]; po, 20 mg/kg) of 13.3 ± 9.24 h and a bioavailability ([5]; po, 20 mg/kg) of 0.485%. For the same molecule, the IC50 (CYP1A2) was > 50 µM, the IC50 (HIV-1 RT RNase H) was > 1100 µM and the EC50 (HIV-1 L100I) was 0.012 ± 0.002 µM. It also gave an IC50 (CYP2C9) of 32.9 µM, a CC50 at 4 days [6] of 1.08 ± 0.09 µM and an EC50 (HIV-1 Y181C) of 0.013 ± 0.002 µM.
